Experimental data from patent US20250325517A1, “ORAL DOSAGE FORMS OF ELRAGLUSIB” (Actuate Therapeutics, Inc., priority 2022, published 2025).
Converted amounts (≈) assume the structure as drawn. Read-outs that look alike come from different tables or passages of the source.

Key:
Assay type in all cases: physicochemical
[1] = 50 mg/mL elraglusib solutions in 12 Vehicle Variants, HPLC with and without syringe filtration; details: no precipitation or haziness, no visible particulates
Procedure: An initial study prepared 50 mg/mL elraglusib solutions in 12 Vehicle Variants.
Each Vehicle Variant was made to 50 mg/mL with elraglusib and was tested (with and without syringe filtration) with respect to: (1) elraglusib main peak Area %, (2) related substance RRT 0.96 Area %, and (3) related Substance Area % RRT 0.97.

[2] = Quantitative solubility by HPLC in organic solvents and surfactants; details: for solubility: thermodynamic from solid, read-out: Solubility (n = 2) by HPLC
From the text: The HPLC method 1 was used for solubility, stability monitoring at 438 nm, and drug loading measurements of the ASD is summarized in Table 2A-31 and the HPLC method 2 was used for stability monitoring at 210 nm, which is summarized in Table 2A-32.

[3] = Solubility of elraglusib in acetone, acetone:water and THF with and without polymers (24 h, visual and HPLC); details: for time to precipitation when agitated: ~4% w/w solids; for visual observation: stirred
Procedure: The solubility of elraglusib API with and without polymers of interest was evaluated in acetone. […] Samples were prepared according to Table 6-13. […] Additional studies were performed to determine if an increased water content would prevent formation of the solvate precipitate and more dilute solutions were tested for potential ASD processing.

[4] = as above

solubility in Vehicle Variants (visual) [1]: remained soluble at 50 mg/mL
solubility ([2]; DCM, no surfactant, organic solvent or mixture): 15.1 mg/mL (≈ 37.3 mM)
solubility ([2]; H2O with Kolliphor EL 10% w/v, aqueous with cosolvent or surfactant or cyclodextrin, H2O, Kolliphor EL 10% w/v): 0.12 mg/mL (≈ 0.297 mM)
solubility ([2]; H2O with Labrasol 10% w/v, aqueous with cosolvent or surfactant or cyclodextrin, H2O, Labrasol 10% w/v): 0.16 mg/mL (≈ 0.396 mM)
solubility ([2]; H2O with Tween 80 10% w/v, aqueous with cosolvent or surfactant or cyclodextrin, H2O, Tween 80 10% w/v): 0.24 mg/mL (≈ 0.594 mM)
solubility ([2]; THF (with stabilizer BHT), no surfactant, organic solvent or mixture): 25.3 mg/mL (≈ 62.5 mM)
solubility ([2]; THF with Kolliphor HS 15 10% w/v, organic solvent or mixture, THF, Kolliphor HS 15 10% w/v): 47.6 mg/mL (≈ 118 mM)
solubility ([2]; THF with Labrasol 10% w/v, organic solvent or mixture, THF, Labrasol 10% w/v): 52.3 mg/mL (≈ 129 mM)
solubility ([2]; THF with Poloxamer P188 10% w/v, organic solvent or mixture, THF, Poloxamer P188 10% w/v): 49.8 mg/mL (≈ 123 mM)
solubility ([2]; THF with TPGS 10% w/v, organic solvent or mixture, THF, TPGS 10% w/v): 46.8 mg/mL (≈ 116 mM)
solubility ([2]; THF with Tween 80 10% w/v, organic solvent or mixture, THF, Tween 80 10% w/v): 49.8 mg/mL (≈ 123 mM)
Solubility (n = 2) by HPLC ([2]; THF, Kolliphor EL 10% w/v): 48.0 mg/mL (≈ 119 mM)
Solubility (n = 2) by HPLC ([2]; THF, no surfactant): 52.7 mg/mL (≈ 130 mM)
solubility ([2]; THF:H2O (90:10) with Labrasol 10% w/v, organic solvent or mixture, THF:H2O (90:10), Labrasol 10% w/v): 54.8 mg/mL (≈ 136 mM)
Solubility (n = 2) by HPLC ([2]; THF:H2O (90:10), no surfactant): 61.2 mg/mL (≈ 151 mM)
solubility ([2]; acetone, no surfactant, organic solvent or mixture): 13 mg/mL (≈ 32.2 mM)
solubility ([2]; organic solvent or mixture, DCM:Acetone (1:1), no surfactant): 19.8 mg/mL (≈ 49 mM)
solubility ([2]; organic solvent or mixture, DCM:Acetone (5:1), no surfactant): 24.5 mg/mL (≈ 60.5 mM)
solubility ([2]; organic solvent or mixture, DCM:EtOH (1:1), no surfactant): 16.4 mg/mL (≈ 40.6 mM)
solubility ([2]; organic solvent or mixture, DCM:MeOH (8:2), no surfactant): 11.8 mg/mL (≈ 29.1 mM)
time remaining soluble ([3]; 1.5-2.0% w/w in 95:5 acetone:water): over 24 hours
time to precipitation when agitated ([3]; 90:10 acetone:water): 3.5 h
time to precipitation when agitated ([3]; 95:5 acetone:water): 2 h
visual observation ([3]; Table 6-14 Sample 1: 4.02% w/w in Acetone, 30 min): Translucent
visual observation ([3]; Table 6-14 Sample 1: 4.02% w/w in Acetone, 1 hour): Translucent
visual observation ([3]; Table 6-14 Sample 1: 4.02% w/w in Acetone, 2 hours): Precipitation
visual observation ([3]; Table 6-14 Sample 1: 4.02% w/w in Acetone, 4 hours): No change
visual observation ([3]; Table 6-14 Sample 1: 4.02% w/w in Acetone, 8 hours): No change
visual observation ([3]; Table 6-14 Sample 1: 4.02% w/w in Acetone, 24 hours): No change
visual observation ([3]; Table 6-14 Sample 2: 4.02% w/w in THF, 30 min): Translucent
visual observation ([3]; Table 6-14 Sample 2: 4.02% w/w in THF, 1 hour): Translucent
visual observation ([3]; Table 6-14 Sample 2: 4.02% w/w in THF, 2 hours): Translucent
visual observation ([3]; Table 6-14 Sample 2: 4.02% w/w in THF, 4 hours): Translucent
visual observation ([3]; Table 6-14 Sample 2: 4.02% w/w in THF, 8 hours): Translucent
visual observation ([3]; Table 6-14 Sample 2: 4.02% w/w in THF, 24 hours): Translucent
visual observation ([3]; Table 6-14 Sample 3: 4.02% w/w in 95:5 Acetone:Water, 30 min): Translucent
visual observation ([3]; Table 6-14 Sample 3: 4.02% w/w in 95:5 Acetone:Water, 1 hour): Translucent
visual observation ([3]; Table 6-14 Sample 3: 4.02% w/w in 95:5 Acetone:Water, 2 hours): Precipitation
visual observation ([3]; Table 6-14 Sample 3: 4.02% w/w in 95:5 Acetone:Water, 4 hours): No change
visual observation ([3]; Table 6-14 Sample 3: 4.02% w/w in 95:5 Acetone:Water, 8 hours): No change
visual observation ([3]; Table 6-14 Sample 3: 4.02% w/w in 95:5 Acetone:Water, 24 hours): No change
visual observation ([3]; Table 6-14 Sample 4: 3.96% w/w API in Acetone with HPMCAS-MG (7.96% w/w total solids), 30 min): Hazy
visual observation ([3]; Table 6-14 Sample 4: 3.96% w/w API in Acetone with HPMCAS-MG (7.96% w/w total solids), 1 hour): Hazy
visual observation ([3]; Table 6-14 Sample 4: 3.96% w/w API in Acetone with HPMCAS-MG (7.96% w/w total solids), 2 hours): Hazy but no
visual observation ([3]; Table 6-14 Sample 4: 3.96% w/w API in Acetone with HPMCAS-MG (7.96% w/w total solids), 4 hours): Precipitation
visual observation ([3]; Table 6-14 Sample 4: 3.96% w/w API in Acetone with HPMCAS-MG (7.96% w/w total solids), 8 hours): No change
visual observation ([3]; Table 6-14 Sample 4: 3.96% w/w API in Acetone with HPMCAS-MG (7.96% w/w total solids), 24 hours): No change
visual observation ([3]; Table 6-17 Sample 1: 3.99% w/w in 90:10 acetone:water, 30 min): Translucent
visual observation ([3]; Table 6-17 Sample 1: 3.99% w/w in 90:10 acetone:water, 1 hour): Translucent
visual observation ([3]; Table 6-17 Sample 1: 3.99% w/w in 90:10 acetone:water, 2 hours): Translucent
visual observation ([3]; Table 6-17 Sample 1: 3.99% w/w in 90:10 acetone:water, 3.5 hours): Precipitation
visual observation ([3]; Table 6-17 Sample 1: 3.99% w/w in 90:10 acetone:water, 4 hours): No change
visual observation ([3]; Table 6-17 Sample 1: 3.99% w/w in 90:10 acetone:water, 21.5 hours): No change
visual observation ([3]; Table 6-17 Sample 2: 3.99% w/w in 95:5 acetone:water, 30 min): Translucent
visual observation ([3]; Table 6-17 Sample 2: 3.99% w/w in 95:5 acetone:water, 1 hour): Translucent
visual observation ([3]; Table 6-17 Sample 2: 3.99% w/w in 95:5 acetone:water, 2 hours): Precipitation
visual observation ([3]; Table 6-17 Sample 2: 3.99% w/w in 95:5 acetone:water, 3.5 hours): No change
visual observation ([3]; Table 6-17 Sample 2: 3.99% w/w in 95:5 acetone:water, 4 hours): No change
visual observation ([3]; Table 6-17 Sample 2: 3.99% w/w in 95:5 acetone:water, 21.5 hours): No change
visual observation ([3]; Table 6-17 Sample 3: 2.04% w/w in 95:5 acetone:water, 30 min): Translucent
visual observation ([3]; Table 6-17 Sample 3: 2.04% w/w in 95:5 acetone:water, 1 hour): No change
visual observation ([3]; Table 6-17 Sample 3: 2.04% w/w in 95:5 acetone:water, 2 hours): No change
visual observation ([3]; Table 6-17 Sample 3: 2.04% w/w in 95:5 acetone:water, 3.5 hours): No change
visual observation ([3]; Table 6-17 Sample 3: 2.04% w/w in 95:5 acetone:water, 4 hours): No change
visual observation ([3]; Table 6-17 Sample 3: 2.04% w/w in 95:5 acetone:water, 21.5 hours): No change
visual observation ([3]; Table 6-17 Sample 4: 1.84% w/w in 95:5 acetone:water, 30 min): Translucent
visual observation ([3]; Table 6-17 Sample 4: 1.84% w/w in 95:5 acetone:water, 1 hour): No change
visual observation ([3]; Table 6-17 Sample 4: 1.84% w/w in 95:5 acetone:water, 2 hours): No change
visual observation ([3]; Table 6-17 Sample 4: 1.84% w/w in 95:5 acetone:water, 3.5 hours): No change
visual observation ([3]; Table 6-17 Sample 4: 1.84% w/w in 95:5 acetone:water, 4 hours): No change
visual observation ([3]; Table 6-17 Sample 4: 1.84% w/w in 95:5 acetone:water, 21.5 hours): No change
visual observation ([3]; Table 6-17 Sample 5: 1.54% w/w in 95:5 acetone:water, 30 min): Translucent
visual observation ([3]; Table 6-17 Sample 5: 1.54% w/w in 95:5 acetone:water, 1 hour): No change
visual observation ([3]; Table 6-17 Sample 5: 1.54% w/w in 95:5 acetone:water, 2 hours): No change
visual observation ([3]; Table 6-17 Sample 5: 1.54% w/w in 95:5 acetone:water, 3.5 hours): No change
visual observation ([3]; Table 6-17 Sample 5: 1.54% w/w in 95:5 acetone:water, 4 hours): No change
visual observation ([3]; Table 6-17 Sample 5: 1.54% w/w in 95:5 acetone:water, 21.5 hours): No change
solubility in acetone ([3]; crystallizes at room temperature at static conditions): 4 % w/w
solubility at 24 h ([3]; organic solvent or mixture, thermodynamic from solid, acetone, 24 hours, read-out: measured solubility by HPLC): 13.1 mg/mL (≈ 32.3 mM)
measured concentration by HPLC ([4]; THF solution, 24 hours (theoretical 37 mg/mL)): 34.68 mg/mL
time remaining soluble ([4]; tetrahydrofuran (THF)): over 24 hours
SMILES: Cn1cc(C2=C(c3coc4ccc(F)cc34)C(=O)NC2=O)c2cc3c(cc21)OCO3 [elraglusib, 3-(5-fluorobenzofuran-3-yl)-4-(5-methyl-5H-[1,3]dioxolo[4,5-f]indol-7-yl)-1H-pyrrole-2,5-dione]
